Assay results: article PMC6019134, “1,2,6-Thiadiazinones as Novel Narrow Spectrum Calcium/Calmodulin-Dependent Protein Kinase Kinase 2 (CaMKK2) Inhibitors” (Molecules : A Journal of Synthetic Chemistry and Natural …, 2018)
Entries after “also recorded” stand apart in the source; their conditions may differ.

Legend:
GSG2A = molecular target: T1, GSG2A (Homo sapiens, UniProt Q8TF76); experiment: DSF thermal shift, kinase panel; format: binding; conditions: 10 μM compound
T1 construct: purchased in-house (home-made panel, SGC-style construct names)
T1 sequence (Q8TF76 1-798): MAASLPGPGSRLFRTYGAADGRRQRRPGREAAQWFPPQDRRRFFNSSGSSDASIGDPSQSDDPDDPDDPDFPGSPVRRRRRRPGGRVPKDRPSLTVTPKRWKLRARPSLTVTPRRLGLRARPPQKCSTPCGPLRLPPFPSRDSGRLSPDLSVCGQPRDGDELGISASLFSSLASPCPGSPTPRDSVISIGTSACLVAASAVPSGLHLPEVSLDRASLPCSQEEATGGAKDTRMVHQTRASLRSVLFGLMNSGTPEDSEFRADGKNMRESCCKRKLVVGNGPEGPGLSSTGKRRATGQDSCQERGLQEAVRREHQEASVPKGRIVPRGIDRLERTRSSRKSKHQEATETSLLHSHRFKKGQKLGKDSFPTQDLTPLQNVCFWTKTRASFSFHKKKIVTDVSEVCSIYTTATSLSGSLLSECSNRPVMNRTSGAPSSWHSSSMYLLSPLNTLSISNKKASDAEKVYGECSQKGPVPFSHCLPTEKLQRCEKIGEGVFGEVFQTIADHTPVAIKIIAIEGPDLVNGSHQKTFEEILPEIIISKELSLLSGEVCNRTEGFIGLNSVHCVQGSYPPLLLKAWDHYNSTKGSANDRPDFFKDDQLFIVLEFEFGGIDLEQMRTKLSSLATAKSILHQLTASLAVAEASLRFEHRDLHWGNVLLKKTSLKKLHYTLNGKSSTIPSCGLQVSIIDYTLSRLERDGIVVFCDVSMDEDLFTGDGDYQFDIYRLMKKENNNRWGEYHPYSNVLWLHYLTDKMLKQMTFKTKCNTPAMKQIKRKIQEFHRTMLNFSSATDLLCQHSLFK
Procedure, shortened: (§1)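 Kinase domains produced in E. coli were purified by Ni-chelate, TEV cleavage and gel filtration. Each was mixed at 1 µM with dye and 10 µM test compound in pH 7.5 phosphate buffer, then melted from 25 to 95 °C; thermal shifts were calculated against DMSO-only protein.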

STK17AA = molecular target: T2, STK17AA (Homo sapiens, UniProt Q9UEE5); experiment: DSF thermal shift, kinase panel; format: binding; conditions: 10 μM compound
T2 construct: TEV-cleavable (cleaved yes); made in house; host or cells: E. coli
T2 sequence (Q9UEE5 1-414): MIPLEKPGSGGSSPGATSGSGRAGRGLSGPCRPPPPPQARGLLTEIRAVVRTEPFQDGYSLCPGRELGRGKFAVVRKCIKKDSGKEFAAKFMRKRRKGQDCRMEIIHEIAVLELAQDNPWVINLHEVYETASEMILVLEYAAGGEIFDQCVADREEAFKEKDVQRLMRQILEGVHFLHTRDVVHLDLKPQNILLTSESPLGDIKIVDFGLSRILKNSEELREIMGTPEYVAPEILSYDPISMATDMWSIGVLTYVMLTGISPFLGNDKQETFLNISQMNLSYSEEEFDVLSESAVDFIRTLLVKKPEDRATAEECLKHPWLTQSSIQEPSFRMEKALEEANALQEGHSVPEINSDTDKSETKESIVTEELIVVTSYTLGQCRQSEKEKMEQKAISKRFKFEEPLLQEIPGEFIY
Procedure, shortened: as §1

[1] = system: panel of 46 protein kinases; experiment: DSF kinome selectivity panel, hits over 2 °C; format: binding; conditions: 10 μM compound, average of 4 experiments; for Kinases Hit DSF > 2 °C: names of the kinases hit, 46 kinases; for Number of Kinases Hit DSF > 2 °C: of 46 kinases
Experimental: The corresponding dianilino-TDZs (1–5) were tested on a panel of 46 protein kinases representing the major kinome branches at a concentration of 10 μM using a Differential Scanning Fluorimetry (DSF). Only analogues 1–3 induced a significant (>2 °C) thermal shift when incubated with a subset of the proteins (Table 1).
Kinase selectivity assay—A home-made kinase panel was generated for the following enzymes: AAK1, BMP2K, BMX, BRAF, CAMK1D, CAMK1G, CAMKK1, CAMKK2B, CDC42BPA, CDK2, CDKL1, CHEK2, CLK1, CSNK1G1, CSNK1G3, CSNK2A1, DYRK1A, DYRK2A, EPHA2, GAK, GSG2, MAPK1, MAP2K7, MAPK14B, MAPK3, PHKG2, PIM1, PLK1, PKMYT1, PRPF4B, RPS6KA1A, RPS6KA5A, RPS6KA6A, SLK, SRPK1, SRPK2, STK3, STK6, STK10, STK17A, STK24, STK38L, TRIB2, TTK, VRK1 and VRK2. Proteins were produced in E. coli, purified in a Ni-chelate column, followed by overnight digestion using TEV protease (made in house with an N-terminal 6xHis tag) and dialysis to remove imidazole. To clear samples of uncleaved proteins and the TEV protease, samples were loaded on new Ni-chelate columns. The flow through was collected, concentrated and loaded to a HiLoad Superdex 200 16/600 column (GE Healthcare, Chicago, IL, USA) for final polishing and buffer exchange.
Starting from 100 µM protein stocks, our kinase panel enzymes were diluted to 1 µM in buffer 100 mM K2HPO4 pH 7.5 containing 150 mM NaCl, 10% glycerol and 5X dye (Applied Biosystems catalogue 4461806). The protein/dye mixture was transferred to a 384-well PCR microplate having 20 µL per well. Compounds in DMSO at 10 mM concentration were added in 20 nL volume, using a liquid handling device setup with a pin head, to make 10 µM compound concentration in the assay plate.
Protein thermal shift data was measured in a qPCR instrument (Applied Biosystems QuantStudio 6) programmed to equilibrate the plate at 25 °C for 5 min followed by ramping the temperature to 95 °C at a rate of 0.05 °C/s. Data was processed using Protein Thermal shift software (Applied Biosystems) by fitting experimental curves to a Boltzmann function to calculate differential thermal shifts (dTm) referenced to protein/dye in 0.2% DMSO.

[2] = molecular target: T3, CAMKK2 kinase domain (132–470) (Homo sapiens, UniProt Q96RR4); experiment: CaMKK2B TR-FRET tracer displacement assay; format: binding; conditions: CaMKK2, displacement of tracer 236, average of 2 experiments
T3 construct: CAMKK2 kinase domain (132–470) was cloned in a pNIC-Bio2 vector; 10xHis tag followed by a TEV site (N, cleaved yes); made in house; host or cells: E. coli BL21(DE3)-R3-BirA
T3 sequence (Q96RR4 132-470): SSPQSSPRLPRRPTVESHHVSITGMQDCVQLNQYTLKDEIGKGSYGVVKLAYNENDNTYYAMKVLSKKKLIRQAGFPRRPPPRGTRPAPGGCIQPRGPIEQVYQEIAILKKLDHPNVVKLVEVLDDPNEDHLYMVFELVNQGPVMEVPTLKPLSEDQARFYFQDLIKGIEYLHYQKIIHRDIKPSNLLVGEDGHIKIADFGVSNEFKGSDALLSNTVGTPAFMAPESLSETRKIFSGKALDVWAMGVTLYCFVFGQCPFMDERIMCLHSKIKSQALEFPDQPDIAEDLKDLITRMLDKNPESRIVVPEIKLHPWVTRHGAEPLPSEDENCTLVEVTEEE
Source text: To more accurately determine the relative changes in potency of the TDZ analogues and to enable measurement of accurate IC50^’s, we developed a Time-Resolved Fluorescence Resonance Energy Transfer (TR-FRET) assay. The TR-FRET tracer displacement assays were generated using a protocol derived from the Lanthascreen binding assays (ThermoFisher Scientific, Waltham, MA, USA) [21].

Cc1ccc(Nc2nsnc(Nc3cccc(C(N)=O)c3)c2=O)cc1O [Compound 1, 3-({5-[(3-Hydroxy-4-methylphenyl)amino]-4-oxo-4H-1,2,6-thiadiazin-3-yl}amino)benzamide]
ΔTm at 10 µM (GSG2A): 0.6 °C
ΔTm at 10 µM (STK17AA): -0.5 °C
Kinases Hit DSF > 2 °C [1]: TRIB2
Number of Kinases Hit DSF > 2 °C [1]: 1
IC50 [2]: > 50 µM

Cc1ccc(Nc2nsnc(Nc3ccc(C(N)=O)cc3)c2=O)cc1O [Compound 2, 4-({5-[(3-Hydroxy-4-methylphenyl)amino]-4-oxo-4H-1,2,6-thiadiazin-3-yl}amino)benzamide]
ΔTm at 10 µM (GSG2A): 1.3 °C
ΔTm at 10 µM (STK17AA): 2.2 °C
Kinases Hit DSF > 2 °C [1]: CAMK1D/G/K1/K2B, CDC42BPA, CDK2; also recorded: CHEK2, DYRK2, MAP2K7, PHKG2; also recorded: PIM1, PKMYT1, RPSKA6, STK3, STK17, TTK
Number of Kinases Hit DSF > 2 °C [1]: 16
IC50 [2]: > 50 µM
melting point: > 300 °C

Cc1ccc(Nc2nsnc(Nc3ccc4c(c3)CS(=O)(=O)C4)c2=O)cc1O [Compound 3, 3-[(2,2-Dioxido-1,3-dihydrobenzo[c]thiophen-5-yl)amino]-5-[(3-hydroxy-4-methylphenyl)amino]-4H-1,2,6-thiadiazin-4-one]
ΔTm at 10 µM (GSG2A): 1.2 °C
ΔTm at 10 µM (STK17AA): 1.7 °C
Kinases Hit DSF > 2 °C [1]: STK10, TRIB2, TTK; also recorded: CAMK1G/2B, CDC42BPA,; also recorded: CLK1, MAP2K7, PIM1,
Number of Kinases Hit DSF > 2 °C [1]: 9
IC50 [2]: 34 µM
melting point: > 300 °C

CNC(=O)c1ccccc1Nc1nsnc(Nc2cccc(CS(C)(=O)=O)c2)c1=O [Compound 4, N-Methyl-2-([5-({3-[(methylsulfonyl)methyl]phenyl}amino)-4-oxo-4H-1,2,6-thiadiazin-3-yl]-amino}-benzamide]
ΔTm at 10 µM (GSG2A): 0.4 °C
ΔTm at 10 µM (STK17AA): -0.8 °C
Number of Kinases Hit DSF > 2 °C [1]: 0
melting point: > 300 °C

CNC(=O)c1ccccc1Nc1nsnc(Nc2ccc(N3CCOCC3)cc2)c1=O [Compound 5, N-Methyl-2-({5-[(4-morpholinophenyl)amino]-4-oxo-4H-1,2,6-thiadiazin-3-yl}amino)benzamide]
ΔTm at 10 µM (GSG2A): 0.3 °C
ΔTm at 10 µM (STK17AA): -0.8 °C
Number of Kinases Hit DSF > 2 °C [1]: 0
melting point: 285 to 287 °C
